Results from paper PMC5870190, “A three-in-one-bullet for oesophageal cancer: replication fork collapse, spindle attachment failure and enhanced radiosensitivity generated by a ruthenium(II) metallo-intercalator” (Chemical Science, 2017).

Experiments:
[1] = test system: OE21, OE33 or FLO-1 cells; experiment: Clonogenic survival assay with IR, three oesophageal cancer cell lines; format: cell-based, human
Protocol: (§1) Clonogenic survival assay. OE21, OE33 or FLO1 cells were treated with 2 µM Ru1 for 24 h before irradiation with 0-8 Gy using a 137Cs γ-irradiator (IBL637, CIS Bio Int.; dose rate = 0.809 Gy min−1). 1 h after irradiation, cells were detached using Trypsin and re-seeded in 6 well plates at a density of 300 – 20,000 cells/well in triplicate in an incrementally greater number of cells with increasing IR dose to ensure adequate colony formation. Cells were incubated for 7–14 days after re-seeding to allow colony formation before being fixed with 10% methanol, 10% acetic acid and stained with 0.4% methylene blue. OE33 cells required an additional formaldehyde fixation (4% in PBS, 5 mins) step before the addition of methylene blue solution or colony detachment occurred. Colonies containing 50 cells or greater were counted using a Gelcount instrument and accompanying software (Oxford Optronix). Plating efficiencies were determined for each treatment condition and normalised to an untreated control to provide the surviving fraction (S. F.). S.F. versus radiation dose curves were plotted in GraphPad Prism and fit using a second order polynomial function (R2 values > 0.99). Dose modifying factors (DMF) at a SF=0.1 were calculated using the equation: Dose modifying factor (DMF) = IR dose to give S.F. 0.1/IR dose plus compound to give S.F.0.1. […]

OE21 cells [2] = experiment: Micronuclei formation, OE21; format: cell-based, human; conditions: 20 μM Ru1, 24 h incubation
Protocol: (§2) propidium iodide (PI) is standard to quantify DNA content using flow cytometry, bleed-through of the MLCT emission of […]
(§3) To remove these artefacts, a higher concentration of Ru1 (100 µM, 10 mins) was additionally applied post-incubation and fixation to treated and control samples, acting as a substitute DNA dye instead of PI. After staining, cells were centrifuged (1000 rpm, 5 mins) and re-suspended in PBS.
(§4) Samples were analysed using a Biosciences LSRII Flow Cytometer using the FL2 channel to collect (recognisable) cell-cycle […]
(§5) profiles. […] A minimum of
(§6) 10,000 cells were counted for each sample and data were processed using FloJo software.
(§7) Microscopy and immunofluorescence. […]
(§8) emission was collected from 500-530 nm to prevent spectral overlap with Ru1 emission. γH2AX foci were counted using […]
(§9) The absorbance at 540 nm was quantified by plate reader (reference wavelength 650 nm). The metabolic activity of the cell population was determined as a percentage of a negative (solvent) control. […]
(§10) Cell cultures were treated as stated, media containing detached/dead cells were removed and retained, and adherent collected by Trypsin and centrifugation. […] Trypan Blue negative and Trypan Blue positive cells were counted by haemocytometer. A minimum of 200 cells were counted for each sample. […]

OE33 cells [3] = experiment: Micronuclei formation, OE33; format: cell-based, human; conditions: OE33, 45 μM Ru1, 24 h incubation
Protocol: as §2, §3, §4, §5, §6, §7, §8, §9, §10

[4] = test system: OE21 human oesophageal squamous cell carcinoma; experiment: MTT assay, OE21 cells; format: cell-based; conditions: for IC50: MTT
Protocol: MTT assay. OE21, FLO-1 or hSAEC1-KT cells were seeded in 96 well plates at 20,000 cells/well (for 24 h treatment) or 10,000 cells/well (for 72 h treatment) and allowed to adhere for 24 h before treatment. OE33 cells were seeded in 48 well plates at 40,000 cells/well (24 h treatment) or 20,000 cells/well (72 h treatment). Cancer cell lines were treated with chemicals dissolved in RPMI media for consistency. After incubation, 0.5 mg/ml MTT (thiazolyl blue tetrazolium bromide) dissolved in serum-free medium was added for 60 minutes and the formazan product eluted using acidified isopropanol.
as §9
For the determination of mutation induction, from the untreated and each treated condition, 2x10^5 cells were plated in 10 x 100 mm dishes in selective media (regular media

OE21 cells [5] = experiment: Clonogenic survival assay with IR, OE21; format: cell-based, human; conditions: Ru1 2 μM or Cis 500 nM for 24 h before IR
Protocol: as §1

[6] = test system: V79 Chinese hamster cells; experiment: HPRT forward mutation assay; format: cell-based
Protocol: as §2, §3, §4, §5, §6
Microscopy and immunofluorescence. Cells were seeded on ibidi 35 mm µ-dishes (Thistle Scientific), allowed to adhere for 24 h and treated as stated in the main text. Cell media was removed, cells washed with PBS and fixed with formaldehyde (4%, 10 mins). Cells were permeablised with Triton (0.5% in PBS, 5 mins) and washed with PBS. […]
as §8, §9
Cell cultures were treated as stated, media containing detached/dead cells were removed and retained, and adherent collected by Trypsin and centrifugation. […] Trypan Blue negative and Trypan Blue positive cells were counted by haemocytometer. A minimum of 200 cells were counted for each sample.
HPRT (hypoxanthine-guanine phosphoribosyl transferase) forward mutation assay. […] The cultures were washed with PBS, cells were detached by trypsin (0.05%) and cell number was determined. […] After 7 days' incubation, the resulting colonies were stained with methylene blue and those containing 100 or more cells were counted. Cloning efficiency was determined and is usually expressed in percent relative to the […]

OE33 cells [7] = experiment: Clonogenic survival assay with IR, OE33; format: cell-based, human; conditions: Ru1 2 μM or Cis 500 nM for 24 h before IR
Protocol: as §1

[Ru(phen)2(tpphz)]^2+ [Ru1]
surviving fraction (S.F.), single-agent ([1]; 2 μM, 24 h, no IR, all three cell lines): > 0.87
dose modification factor (DMF) at surviving fraction of 0.1 ([1]; Ru1 2 μM or sub-cytotoxic cisplatin (500 nM OE21 and OE33, 300 nM FLO-1), 24 h before IR, range over three cell lines): 1.19–1.31
Cells with micronuclei, Percentage (OE21 cells [2]; OE21 (n=1)): 17.8%
Cells with micronuclei, Percentage (OE21 cells [2]; OE21 (n=2)): 15.0%
Cells with micronuclei, Percentage (OE33 cells [3]): 3.4%
IC50 ([4]; OE21, 24 h constant exposure): 21 ± 4.2 µM
IC50 ([4]; OE21, 72 h constant exposure): 2.9 ± 1.5 µM
greater potency than cisplatin ([4]; OE21, 72 h incubation): two-fold
S.F. (OE21 cells [5]; OE21, IR 0 Gy): 1.062
S.F. (OE21 cells [5]; OE21, IR 2 Gy): 0.801
S.F. (OE21 cells [5]; OE21, IR 4 Gy): 0.410
S.F. (OE21 cells [5]; OE21, IR 6 Gy): 0.152
S.F. (OE21 cells [5]; OE21, IR 8 Gy): 0.062
M.F. (mutation frequency) ([6]; 2 μM of each complex for 24 h): 36.7 ± 7.3 6-TG resistant mutations per 1 × 10^5 viable cells
Rel. M.F. (ratio of induced to spontaneous mutations) ([6]; 2 μM of each complex for 24 h): 5.8
mutation rate lower than for cisplatin ([6]; HPRT assay, V79, 2 μM, 24 h): two-fold
S.F. (OE33 cells [7]; OE33, IR 0 Gy): 0.956
S.F. (OE33 cells [7]; OE33, IR 2 Gy): 0.447
S.F. (OE33 cells [7]; OE33, IR 4 Gy): 0.083
S.F. (OE33 cells [7]; OE33, IR 6 Gy): 0.014
S.F. (OE33 cells [7]; OE33, IR 8 Gy): 0.003
